Experiments:
FBO = test system: T1, FBO; assay: HPLC, Michaelis-Menten fit; assay type: biochemical, Sphingobium sp. W15; settings: 20 mM Tris-HCl pH 8.0, 30 °C, 0.2 mM FAD added
T1 construct: synthetic gene, expressed and purified like BpfA (E. coli, Ni-NTA)

BpfA = test system: T2, BpfA; assay: HPLC, Michaelis-Menten fit; assay type: biochemical, Microbacterium sp. F2; settings: 20 mM Tris-HCl pH 8.0, 30 °C, O2 as electron acceptor
T2 construct: recombinant from pET29a(+) (NdeI/XhoI) in E. coli BL21(DE3), Ni-NTA purified; contains flavin

Km (FBO)	Km (BpfA)	Structure (SMILES)
170 ± 5.9 µM	25.4 ± 2.9 µM	CCCc1ccc(O)c(OC)c1 [4PG]
183 ± 9.3 µM	266 ± 10.3 µM	COc1cc(CO)ccc1O [VA]
–	297 ± 5 µM	COCc1ccc(O)cc1 [4MOP]

Structure (SMILES)	Km (FBO)	Km (BpfA)
Oc1ccc(Cc2ccc(O)cc2)cc1 [BPF]	167 ± 12.8 µM	12.4 ± 1.9 µM

From article PMC12507022, “Widespread distribution of BpfA-mediated bisphenol F degradation among members of the Pseudomonadota and Actinomycetota” (The ISME Journal, 2025)
